Laboratory results reported in US7718639B2, “7-hydroxyepiandrosterone having neuroprotective activity” (Hunter-Fleming Limited, priority 2000, dated 2010).

What was measured:
[1] = system: CA1 cell layer of organotypic hippocampal slice cultures; assay: Hypoxic neuronal damage in organotypic hippocampal slice cultures (PI fluorescence in CA1); assay type: cell-based, Wistar rat; details: for reduction of hypoxic CA1 damage (in words): present pre-
Description: Organotypic hippocampal slice cultures were prepared using the basic method of Pringle et al (1996, 1997) modified as follows:
Wistar rat pups (8-11 days old) were decapitated and the hippocampus rapidly dissected into ice-cold Gey's balanced salt solution supplemented with 4.5 mg/ml glucose. Slices were separated and plated onto Millicell CM culture inserts (4 per well) and maintained at 37° C./5% CO2 for 14 days. Maintenance medium consisted of 25% heat-inactivated horse serum, 25% Hank's balanced salt solution (HBSS) and 50% minimum essential medium with added Earle's salts (MEM) supplemented with 1 mM glutamine and 4.5 mg/ml glucose. Medium was changed every 3-4 days.
Experimental hypoxia was performed as described previously (Pringle et al., 1996; 1997). Briefly, cultures were transferred to serum free medium (SFM—75% MEM, 25% HBSS supplemented with 1 mM glutamine and 4.5 mg/ml glucose) containing 5 μg/ml of the fluorescent exclusion dye propidium iodide (PI). Cultures were allowed to equilibrate in SFM for 60 minutes prior to imaging. PI fluorescence was detected using a Leica inverted microscope fitted with a rhodamine filter set. Any cultures in which PI fluorescence was detected at this stage were excluded from further study. Hypoxia was induced by transferring cultures to SFM (+PI) which had been saturated with 95%N2/5%CO2. Culture plates (without lids) were then sealed into an airtight chamber in which the atmosphere was saturated with 95%N2/5%CO2 by continuously blowing through gas at 10 L/min for ten minutes before being sealed and placed in the incubator for 170 mins (total time of hypoxia was therefore 180 mins). At the end of the hypoxic period cultures were returned to normoxic SFM containing PI and placed back in the incubator for 24 hours.
Neuronal damage was assessed as described previously (Pringle et al., 1996; 1997) using either NIH Image 1.60 running on an Apple IIsi computer or OpenLab 2.1 (Improvision) running on a Macintosh G4/400. Images were captured using a monochrome camera and saved onto optical disk for offline analysis. Light transmission images were captured prior to the addition of drugs, and PI fluorescence images recorded at the end of the 24-hour post-hypoxia recovery period. The area of the CA1 cell layer was determined from the transmission image. The area of PI fluorescence in CA1 was measured using the density slice function within NIH image or Openlab, and neuronal damage expressed as the percentage of the CA1 in which PI fluorescence was detected above background.
Steroid compounds were prepared by making an initial 1 mg/ml solution in ethanol and further diluting down in SFM. Compounds were added to the cultures for 45 minutes prior to hypoxia, during the hypoxic episode and during the post-hypoxic recovery period. Control experiments consisted of cultures treated with vehicle alone.

[2] = system: hippocampal CA1 pyramidal cells; assay: Global cerebral ischemia in rats (4 vessel occlusion), surviving CA1 neurons by Nissl staining; assay type: in vivo, male Wistar rats
Description: Cerebral ischemia was induced by four-vessel-occlusion (4VO) in male Wistar rats (250-280 g). Both vertebral arteries were occluded by electrocauterization in pentobarbital anesthesia (60 mg/kg i.p.). The animals were allowed to recover for 24 hours with free access to water but not food. The next day the carotid arteries were exposed under 2% halothane in 30% oxygen/70% nitrous oxide anesthesia and were occluded for 10 minutes using microvascular claps. Subsequently, both clamps were removed and both arteries were inspected for immediate reperfusion. During the operation and the following 3 hours normothermia of the animals (37.5Γ0.5° C.) was maintained by using a thermostatically controlled heating blanket connected to a rectal thermometer. For control, in sham-operated animals both vertebral arteries were cauterized in pentobarbital anesthesia and both common carotid arteries were exposed but not clamped under 2% halothane in 30% oxygen/70% nitrous oxide anesthesia the following day. The wound was treated with lidocaine gel and then sutured. The animals were kept under a heating lamp at 30° C. environmental temperature until they regained consciousness.
Seven groups of animals were investigated: • 1. (n=8) steroid compound, 7β-OH EPIA (0.1 mg/kg, i.v. via tail vein, three injections: 15 minutes prior to the induction of ischemia, during ischemia and 5 minutes after reperfusion); • 2. (n=8) steroid compound, 7β-OH EPIA (0.3 mg/kg, i. v. three injections as described in 1.); • 3. (n=8) steroid compound, 7β-OH EPIA (1 mg/kg, i. v., three injections as described in 1.); • 4. (n=8) NBQX (disodium salt, because more water soluble) as reference substance and positive control (TOCRIS, Germany, 30 mg/kg, i. p., three injections as described in 1.); • 5. (n=8) received vehicle (0.9% NaCl, containing 100 μl Ethanol) three injections as described in 1.); • 6. (n=8) ischemia alone; • 7. (n=8) sham operated controls.
The substances were dissolved in 100 μl Ethanol and finally diluted with 0.9% NaCl.
After a survival time of 7 days after ischemia, all animals were perfusion fixed transcardially with 4% paraformaldehyde. The brains were then removed carefully and postfixed in the same fixative for 2 hours. After cryoprotection in 30% sucrose, the brains were rapidly frozen in isopentane and stored at −80° C. Twenty-micrometer cryostat sections comprising the hippocampal formation were Nissl stained with toluidine blue or NeuroTrace fluorescence.
The severity of neuronal damage in the hippocampal CA1 region after ischemia was evaluated by the number of surviving neurons using Nissl staining. The mean number of morphologically intact neurons per 400 μm length was calculated in CA1 region for each group. […] The data were statistically analyzed by paired Student's t-test. […]

[3] = Experiment 1, 100 nM, compound present pre-, during and post-hypoxia, control hypoxia 25.5 ± 6.4
[4] = Experiment 1, 100 nM, during and post-hypoxia
[5] = Experiment 2, 1 nM, control hypoxia 31.9 ± 4.7
[6] = Experiment 2, 10 nM, control hypoxia 31.9 ± 4.7
[7] = Experiment 2, 100 nM, control hypoxia 31.9 ± 4.7

SMILES | % Damage in CA1 [1, 3] | reduction of hypoxic CA1 damage (in words) [1, 4] | neuroprotective effect against hypoxic damage (in words) ([1]; Experiment 2, 1 nM) | % Damage in CA1 [1, 5] | neuroprotective effect against hypoxic damage (in words) ([1]; Experiment 2, 10 nM) | % Damage in CA1 [1, 6] | neuroprotective effect against hypoxic damage (in words) ([1]; Experiment 2, 100 nM) | % Damage in CA1 [1, 7] | neuroprotective effect on CA1 pyramidal cells compared to the sham operated group ([2]; 0.1 mg/kg i.v., three injections, 10 min global ischemia, 7 days survival, p=0.01) | neuroprotective effect on CA1 pyramidal cells compared to the sham operated group ([2]; 0.3 mg/kg i.v., three injections, 10 min global ischemia, 7 days survival, p=0.0008) | neuroprotective effect on CA1 pyramidal cells (in words) ([2]; 1.0 mg/kg i.v., three injections, 10 min global ischemia, 7 days survival) | behavioral abnormalities of the animals ([2]; injected i.v. prior, during and after ischemia, all experiments)
CC12CCC3C(C1CCC2=O)[C@H](O)C[C@H]1C[C@@H](O)CCC31C (stereo partly drawn) [7αOH-EPIA, 7α-Hydroxy-EPIA] | 4.0 ± 2.9 % | significantly reduced | no effect | 28.8 ± 5.8% | not-statistically significant reduction | 21.9 ± 8.1% | significantly protective | 11.8 ± 2.8 % |  |  |  | 
CC12CCC3C(C1CCC2=O)[C@@H](O)C[C@H]1C[C@@H](O)CCC31C (stereo partly drawn) [7βOH-EPIA, 7β-hydroxyepiandrosterone] | 9.0 ± 4.7 % | significantly reduced | activity was lost | 20.6 ± 7.2% | significantly neuroprotective | 11.9 ± 4.7 % | significantly neuroprotective | 14.3 ± 5.0 % | 74.8% | 83.9% | only a tendency to neuroprotection, but the effect was not significant | never observed any behavioral abnormalities
